Results as given in US20240156856A1, “NOVEL APPLICATIONS OF HYALURONIC ACID FOR TREATMENT OF PAIN AND PRURITIS” (THE REGENTS OF THE UNIVERSITY OF CALIFORNIA, priority 2022, published 2024).

Tests used:
[1] = test system: rats with paclitaxel CIPN; assay: Paclitaxel CIPN mechanical hyperalgesia, Randall-Selitto paw-withdrawal test; type: in vivo, Sprague-Dawley rats
Experimental: (§1) Experimental animals. Experiments were performed on 220-400 g male and female Sprague-Dawley rats, purchased from Charles River Laboratories (Hollister, CA, USA), housed three per cage, under a 12-hour light/dark cycle, in a temperature- and humidity-controlled animal care facility at the University of California, San Francisco. Food and water were available ad libitum. Experimental protocols were approved by the University of California, San Francisco, Institutional Animal Care and Use Committee, and adhered to the National Institutes of Health Guidelines for the care and use of laboratory animals.
(§2) Measurement of nociceptive threshold. Mechanical nociceptive threshold was quantified with an Ugo Basile Analgesymeter (Stoelting, Wood Dale, IL, USA), used to perform the Randall-Selitto paw-withdrawal test [61; 68; 69]. This device uses a dome-shaped plinth to apply a mechanical force that increases linearly with time, to the dorsum of a rat's hindpaw. To perform the Randall-Selitto paw-withdrawal test, rats were placed in cylindrical acrylic restrainers with lateral ports that allow access to the hind paw, as described previously. Rats were acclimatized to the testing procedure by placing them in restrainers for 1 h per day for 3 consecutive daily training sessions, and for 30-40 min prior to experiments.
(§3) Mechanical nociceptive threshold is defined as the force, in grams, applied by the plinth to the dorsum of the hindpaw, at which a rat withdraws its paw from the stimulus. Baseline paw-withdrawal threshold is defined as the mean of three readings taken before administration of test agents. To minimize experimenter bias, individuals conducting experiments were blinded to experimental treatments. Each experiment was performed on a different group of rats. Data are presented as mechanical nociceptive threshold, in grams (g) or percentage change from preintervention baseline.
Hyaluronans were initially dissolved in distilled water (dH2O) at a concentration of 10 μg/μL, stock solution, and further diluted by adding DMSO with three final concentrations of hyaluronan (1, 2 and 4 μg/μL), protamine or terpene; unless otherwise stated, the final concentration of DMSO was 75%. The DMSO vehicle was 75% DMSO in 0.9% saline. In one experiment, 500-1200 kDa hyaluronan was administered topically in 0.9% saline vehicle. PGE2 was dissolved in 0.9% saline at the same final concentration that we previously injected intradermally (100 ng/5 μL). In the experiments in which hyaluronan was dissolved in protamine or terpene vehicle, protamine was first dissolved in distilled water (dH2O) to a concentration of 5 μg/μ1, stock solution of hyaluronan was combined with protamine at the final concentration of 2 μg/μ1, in a volume of 3 μl, for topical administration; terpene was first dissolved in dH2O at the concentration of 2 μg/μ1, then hyaluronan was dissolved in stock solution of terpene to its final concentration of 2 μg/μ1, in a volume of 3 μl, for topical administration).
Paclitaxel CIPN: Paclitaxel was dissolved in Cremophor EL and ethanol (1:1) [1; 6; 20; 22] and diluted in 0.9% saline to a concentration of 1 mg/mL, just prior to its intraperitoneal (i.p.) administration (1 mg/kg, i.p.) [19; 42] to rats briefly anesthetized with isoflurane (2.5% in O2), every other day for a total of 4 doses.
Hyaluronans (30 μL) were administered topically on the dorsum of the hind paw, dispensed from a P200 pipette (Gilson, Middleton, WI, USA) with a plastic pipette tip and then spread manually.
Antisense oligodeoxynucleotides (ODNs).
Before use, ODNs were reconstituted in nuclease-free 0.9% saline and then administered by the intrathecal (i.t.) route. As described previously, rats were anesthetized with isoflurane (2.5% in O2) and 120 μg of ODN, in a volume of 20 μL, injected i.t., using a syringe ([…]) attached to a 29-gauge hypodermic needle that was inserted into the subarachnoid space, between the L4 and L5 vertebrae. […]

[2] = test system: PGE2 hyperalgesia in male and female rats; assay: PGE2-induced mechanical hyperalgesia, Randall-Selitto paw-withdrawal test; type: in vivo, Sprague-Dawley rats; settings: for PGE2-induced hyperalgesia (mechanical nociceptive threshold): topical 2 μg/μL in 30 μL DMSO vehicle, 30 and 60 min after PGE2
Experimental: as §1, §2, §3
Hyaluronans were initially dissolved in distilled water (dH2O) at a concentration of 10 μg/μL, stock solution, and further diluted by adding DMSO with three final concentrations of hyaluronan (1, 2 and 4 μg/μL), protamine or terpene; unless otherwise stated, the final concentration of DMSO was 75%. The DMSO vehicle was 75% DMSO in 0.9% saline. In one experiment, 500-1200 kDa hyaluronan was administered topically in 0.9% saline vehicle. PGE2 was dissolved in 0.9% saline at the same final concentration that we previously injected intradermally (100 ng/5 μL). […]

Substance: hyaluronan [500-1200 kDa hyaluronan]
- hyperalgesia induced by paclitaxel ([1]; female rats given i.t. GPR30 antisense or mismatch ODN, topical 2 μg/μL, 30 μL): only attenuated the hyperalgesia induced by paclitaxel in the GPR30 antisense-treated group
- hyperalgesia induced by paclitaxel ([1]; gonad intact female rats, topical 2 μg/μL, 30 μL in DMSO vehicle): did not attenuate hyperalgesia
- hyperalgesia induced by paclitaxel ([1]; male rats given i.t. CD44 antisense or mismatch ODN, topical 2 μg/μL, 30 μL in DMSO): attenuated the hyperalgesia induced by paclitaxel only in the CD44 mismatch-treated group
- time at which anti-hyperalgesia was still present after the second administration ([1]; male rats, reapplied at the same site after first effect wore off, DMSO vehicle): ≥ 180 min
- hyperalgesia induced by paclitaxel ([1]; male rats, topical 2 μg/μL, 30 μL in DMSO, day 7): attenuated the hyperalgesia induced by paclitaxel
- time by which anti-hyperalgesia dissipated, first administration ([1]; male rats, topical 2 μg/μL, 30 μL in DMSO, repeated-administration experiment): ≤ 120 min
- anti-hyperalgesia in paclitaxel-induced CIPN ([1]; ovariectomized female rats, topical 2 μg/μL, 30 μL in DMSO): induced anti-hyperalgesia of similar magnitude to that observed in gonad intact male rats
- PGE2-induced hyperalgesia (mechanical nociceptive threshold) ([2]; female rats): attenuated PGE2-induced hyperalgesia
- PGE2-induced hyperalgesia (mechanical nociceptive threshold) ([2]; male rats): attenuated PGE2-induced hyperalgesia
- magnitude of topical anti-hyperalgesia compared with intradermal injection ([2]; topical, combined with DMSO): anti-hyperalgesia of similar magnitude to that produced by its intradermal injection
